Results from US11458118B2, “Methods and pharmaceutical compositions for the treatment of diseases associated with reduced CFTR function” (INSERM (INSTITUT NATIONAL DE LA SANTÉ ET DE LA RECHERCHE …, priority 2017, dated 2022).
Entries after “also recorded” stand apart in the source; their conditions may differ.

How the values were obtained:
F508del-CFTR [1] = assay: Whole-cell patch-clamp of CFTR Cl- channel activity in CFBE41o-/F508del cells; format: cell-based, human; details: for increase of Cl- currents in treated vs untreated F508del-CFTR cells: pA/pF values at +80 mV
Experimental: (§1) The CFBE41o−cells purchased from Professor D. C.
Whole-cell patch-clamp recordings were obtained with the patch clamp system Port-a-Patch® (Nanion Technologies GmbH, Germany) as previously described [74;75]. Untreated or AEBSF treated cells were incubated with the external solution (140 mM NaCl, 2 mM CaCl2, 1 mM MgCl2, 10 mM Hepes, 5 mM D-glucose monohydrate, pH 7.4, 298 mOsmol) before recording. The internal solution used was 50 mM CsCl, 10 mM NaCl, 60 mM Cs-Fluoride, 20 mM EGTA, 10 mM Hepes/CsOH, and 5 mM Mg-ATP (Mg salt); pH 7.2; 285 mOsmol. CFTR activation and CFTR inhibition was done using the CFTR-activator ([…] and […] both from Sigma) and the CFTR-inhibitor ([…], Sigma) solution respectively, that were added to the external solution. Voltage steps (100 ms) from a holding potential of −80 mV, from −80 mV to +80 mV (10 mV increments) were applied. Data were captured using the Patchmaster program (Nanion Technologies GmbH, Germany) and currents normalized by membrane capacitances to remove variability due to differences in the cell sizes. Results were presented as graphic representations of I/V relationship and as bar graphs after statistical analysis of the normalized values, at +80 mV.

F508del-CFTR [2] = assay: Cell surface detection of CFTR in BHK cells expressing HA-tagged F508del-CFTR; format: cell-based, hamster; details: for presence of F508del-CFTR within membranes: after treatment of cells expressing F508del-CFTR
Experimental: BHK cells stably expressing WT-CFTR or F508del-CFTR were graciously given by Dr. John W. Hanrahan (McGill University). A 3-Haemaglutinin (HA)-epitope tag was inserted in the fourth extracellular loop of CFTR in these cell lines. Cells were cultured in Dulbecco's modified Eagle medium (Lonza, Switzerland) supplemented with 10% fetal bovine serum. Cells were washed three times with cold 1×PBS (Eurobio, France) plus bovine serum albumine (BSA, 0.5%) and incubated 1 h at 4° C. with an anti-HA antibody (BioLegend, USA) diluted (1/250) in 1×PBS plus 0.5% BSA. Cells were washed three times with cold 1×PBS, scraped and centrifugated (300×g, 3 min, 4° C.). Cells pellets were suspended in RIPA buffer for 30 min on ice, centrifuged (16000×g, 15 min, 4° C.) and total protein concentration of supernatant was determined using Lowry's method, using BSA as a standard. Protein G magnetic beads (Thermo Fisher Scientific, USA) were equilibrated with cold RIPA buffer. Lysates were then incubated with the magnetic beads (100 μl of magnetic beads per mg of total protein) at 4° C. during for 2 h. Beads were then rinsed three times in cold RIPA buffer and proteins were eluted with 2× sample buffer containing 2-mercaptoethanol (20 min, 37° C.). […] Membrane was blocked with 5% (w/v) dried skimmed milk in PBS (0.1%) with Tween20, probed overnight at 4° C. with the anti-HA antibody (1/500) in 5% non-fat dried milk in PBST. Membranes were further washed and incubated 1 h at RT with HRP conjugated anti-mouse antibody (1/20000; Santa Cruz Biotechnology, USA). Blots were developed by enhanced chemiluminescence kit (ECL Plus, GE Healthcare, USA) and analyzed using Chemi-Smart 5100 ECL imaging system (Vilber Lourmat, Germany).

[3] = test system: S1P-mediated cleavage of ATF6; details: from references [69], [78]; cited from earlier work
BiP = BiP expression by western blot in cells expressing F508del-CFTR (UPR reporter); format: cell-based, human; details: 300 μM AEBSF, total cell lysates
Experimental: as §1
(§2) Untreated or AEBSF treated cells were rinsed twice with cold PBS. For total cell lysate preparation, cells were lysed in RIPA buffer (25 mM Tris-HCl pH 7.5, 150 mM NaCl, 1% Triton X-100, 1% Na-Deoxycholate, 0.1% SDS, 10 mM iodoacetamide, 100 μM PMSF) supplemented with fresh protease-inhibitor cocktail (Complete tablets—EDTA free, Roche, Basel, Switzerland) added extemporaneously at a final concentration of 40 μl/ml (30 min on ice). Lysates were centrifugated (15 min, 16000 g, 4° C.). For nuclear preparation, cells were washed twice with cold PBS, and lysed with buffer A (10 mM HEPES pH 7.9, 1.5 mM MgCl2, 10 mM KCl, 2 mM EDTA, 0.5 mM DTT, 0.20% NP40 and protease-inhibitor cocktail) during 15 min at 4° C. Lysates were then centrifuged (1,500×g, 2 min, 4° C.) and the supernatants (cytosolic fraction) were removed in a new tube. […] Protein concentrations were determined using Lowry's methodology with the bovine serum albumin used as a standard.
(§3) For each sample equal amount of total or nuclear proteins was loaded on a polyacrylamide gel and resolved by SDS-PAGE (10%). […] Blots were developed by enhanced chemiluminescence kit (ECL Plus, GE Healthcare) and analyzed using Chemi-Smart 5100 ECL imaging system (Vilber Lourmat). The relative intensity of each band was quantified by densitometry using BIO-1D software (Vilber Lourmat). […]

ATF6 = ATF6 expression and activation by western blot (total lysates, nuclear fractions) in cells expressing F508del-CFTR; format: cell-based, human; details: 300 μM AEBSF
Experimental: as §1
Untreated or AEBSF treated cells were rinsed twice with cold PBS. For total cell lysate preparation, cells were lysed in RIPA buffer (25 mM Tris-HCl pH 7.5, 150 mM NaCl, 1% Triton X-100, 1% Na-Deoxycholate, 0.1% SDS, 10 mM iodoacetamide, 100 μM PMSF) supplemented with fresh protease-inhibitor cocktail (Complete tablets—EDTA free, Roche, Basel, Switzerland) added extemporaneously at a final concentration of 40 μl/ml (30 min on ice). Lysates were centrifugated (15 min, 16000 g, 4° C.). For nuclear preparation, cells were washed twice with cold PBS, and lysed with buffer A (10 mM HEPES pH 7.9, 1.5 mM MgCl2, 10 mM KCl, 2 mM EDTA, 0.5 mM DTT, 0.20% NP40 and protease-inhibitor cocktail) during 15 min at 4° C. Lysates were then centrifuged (1,500×g, 2 min, 4° C.) and the supernatants (cytosolic fraction) were removed in a new tube. The pellet was washed twice in buffer B (Buffer A without NP40) and lysed with buffer C (20 mM HEPES pH 7.9, 1.5 mM MgCl2, 450 mM KCl, 2 mM EDTA, 2 mM EGTA, 0.5 mM DTT, 25% Glycerol and protease-inhibitor cocktail) during 1 h vortexing 2200 rpm. Lysates were then centrifuged (14,000×g, 10 min, 4° C.) and supernatant (nuclear fraction) was removed in a new tube. Protein concentrations were determined using Lowry's methodology with the bovine serum albumin used as a standard.
For each sample equal amount of total or nuclear proteins was loaded on a polyacrylamide gel and resolved by SDS-PAGE (10%). Samples were then transferred onto a PVDF membrane (EMD Millipore, Billerica, Mass., United States). After blotting, membranes were blocked with 5% (w/v) non-fat dried skimmed milk in PBS-0.1% Tween20 (PBST). Blots were then probed overnight at 4° C. with the primary antibodies listed hereafter: Rabbit polyclonal anti-ATF6 antibody (#09-069, EMD Millipore), Rabbit polyclonal anti-S1P antibody (H-300) (#SC-20757, SantaCruz Biotechnology), Rabbit polyclonal anti-GRP78 antibody (H-129) (#SC-13968, SantaCruz Biotechnology). Membranes were further incubated 1 h at room temperature with the appropriate horseradish peroxidase (HRP) conjugated secondary antibody diluted in PBST (1/20,000): Goat anti-rabbit (#A0545, Servilab). Blots were developed by enhanced chemiluminescence kit (ECL Plus, GE Healthcare) and analyzed using Chemi-Smart 5100 ECL imaging system (Vilber Lourmat). The relative intensity of each band was quantified by densitometry using BIO-1D software (Vilber Lourmat). Each value was normalized by blue coomassie staining or the G3PDH signal obtained in the same lane on the same blot probed with mouse monoclonal antibody anti-G3PDH (#H86504M, Meridian Life Science®, Inc.) diluted in PBST (1/30,000).

S1P = S1P expression by western blot in cells expressing F508del-CFTR; format: cell-based, human; details: 300 μM AEBSF, total cell lysates
Experimental: as §1, §2, §3

[4] = test system: cells expressing Wt-CFTR and F508del-CFTR; assay: Cell toxicity observed in treated cells; details: in the used concentration (300 μM AEBSF; 10 μM PF-429242)
Experimental: The CFBE41o−cells purchased from Professor D. C. Gruenert (San Francisco, Calif., U.S.A.) were human bronchial epithelial cells endogenously expressing the F508del-CFTR obtained from a CF patient homozygous for the F508del mutation [51;52]. The cells used in experiments were the transduced CFBE41o−/WT also called CFBE41o−/corrected (CFBE41o−/corr) and CFBE41o−/F508del cells, and were cultured as previously described. These cells will be also called cells expressing Wt-CFTR and cells expressing F508del-CFTR in the manuscript. Cell culture media and supplements were purchased from Lonza (Basel, Switzerland) and CliniSciences (Nanterre, France). To inhibit ATF6 activation, cells were incubated with 300 μM of the serine protease inhibitor 4-(2-Aminoethyl) benzenesulfonyl fluoride hydrochloride (AEBSF) purchased from Servilab. In some experiments, ATF6 activation was blocked by the use of 10 μM PF-429242 (4-[(Diethylamino)methyl]-N-[2-(2-methoxyphenyl)ethyl]-N-(3R)-3-pyrrolidinylbenzamide, from Tocris).

[5] = test system: cells expressing F508del-CFTR; assay: 2-DE and mass spectrometry of differentially expressed proteins after treatment; format: cell-based, human; details: AEBSF treated vs untreated cell lysates, above 2 fold, MS identification
Experimental: 100 μg of total proteins from untreated or AEBSF treated cells were used for experiments. Each protein sample was first diluted in DeStreak Rehydration Solution (GE Healthcare, Chalfont St Giles, UK) which contains optimized concentrations of urea, thiourea, CHAPS, DeStreak Reagent and appropriate IPG buffer. Passive rehydration of Immobiline DryStrip gels (7 cm, pH 3-10 NL, GE Healthcare) with samples was performed during 8 hours. Once rehydration completed, Immobiline DryStrip gel are transferred in the Manifold on Ettan IPGphor 3 (GE Healthcare) for first dimension isoelectric focusing (IEF). IEF protocol used is divided in five steps: 1—Step 300 V, 200 Vhr; 2—Grad 1000 V, 300 Vhr; 3—Grad 5000 V, 4500 Vhr; 4—Step 5000V, 9000 Vhr; 5—Step 300V, 12-15 h. Second-dimension separation is performed immediately after IEF is completed. Immobiline DryStrip gels are equilibrated (15 min at room temperature) in two SDS equilibration buffers (6 M urea, 75 mM Tris-HCl pH=8.8, 30% Glycerol, 2% SDS, 0.0002% bromophenol blue+DTT or iodoacetamide) before SDS-PAGE. Electrophoresis was performed with lab-cast gels (1 mm, Bis-Tris 10%) in 1× Tris-Glycine-SDS buffer (BioRad, Hercules, Calif., USA) at 120 V for 2 h 30. […] Gel alignment, spot detection and quantification were done using the PDQuest software (PDQuest Basic-8.0.1, BioRad). […]

Structure (SMILES) | increase of Cl- currents in treated vs untreated F508del-CFTR cells (F508del-CFTR [1]; 10 μM PF-429242, 8 hours) | mean cell Cl- currents (function of F508del-CFTR) (F508del-CFTR [1]; CFBE41o-/F508del cells, 10 μM PF-429242, 8 hours, at +80 mV, untreated 32.98±14.71) | presence of F508del-CFTR within membranes (F508del-CFTR [2]) | inhibition of ATF6 cleavage upon ER stress [3] | increase of Cl- currents in treated vs untreated F508del-CFTR cells (F508del-CFTR [1]; 300 μM AEBSF, 8 hours) | fold increase of the F508del-CFTR's Cl- function (F508del-CFTR [1]; 300 μM AEBSF, 8 hours, vs untreated cells) | mean cell Cl- currents (F508del-CFTR [1]; CFBE41o-/F508del cells, 300 μM AEBSF, 8 hours, at +80 mV, untreated 32.98±14.71, Wt-CFTR 118.8±21.09) | BiP expression, treated vs untreated cells for each time point (BiP) | BiP expression over time in treated cells (BiP; over time) | ATF6 activation (cleaved form in nuclear fraction) compared to the zero time point (ATF6; nuclear fractions) | cleaved 50 kDa ATF6 in nuclear fraction, treated vs untreated cells for each time point (ATF6; nuclear fractions) | full length ATF6 expression compared to the zero time point (ATF6; total cell lysates) | full length ATF6 expression, treated vs untreated cells for each time point (ATF6; total cell lysates) | S1P expression over time in treated cells (S1P; 0.5, 1, 2, 4 or 8 hours, CFBE41o-/F508del cells, hydrochloride) | S1P expression, treated vs untreated cells for each time point (S1P; F508del-CFTR cells) | mature form of CFTR (C band, 170 kDa) at the cell surface (F508del-CFTR [2]; BHK cells expressing HA-tagged F508del-CFTR, anti-HA pull-down and immunoblot) | cell toxicity [4] | differentially expressed proteins after treatment [5]
CCN(CC)Cc1ccc(C(=O)N(CCc2ccccc2OC)[C@@H]2CCNC2)cc1 [PF-429242, 4-[(Diethylamino)methyl]-N-[2-(2-methoxyphenyl)ethyl]-N-(3R)-3-pyrrolidinylbenzamide] | +152% | 82.67±22.26 pA/pF | increase the presence of F508del-CFTR within membranes | efficiently blocks the S1P-mediated cleavage of ATF6 upon ER stress |  |  |  |  |  |  |  |  |  |  |  |  |  | 
Cl.NCCc1ccc(S(=O)(=O)F)cc1 [AEBSF, 4-(2-Aminoethyl) benzenesulfonyl fluoride hydrochloride] |  |  | increase the presence of F508del-CFTR within membranes | inhibit the proteolysis of ATF6 | +153% | 2.5 fold | 83.42±11.51 pA/pF | Significant decreases at the 4 and 8 hours time points | significant decrease of BiP expression was observed after 4 hours of treatment | significant decreases at the 2 and 4 hours treatment | significant decreased expression of the 50 kDa form of ATF6, from 1 to 8 hours | significant increased expression was observed after 4 and 8 hours of treatment | significant decreases after 0.5, 1 and to 2 hours and a significant increase after 8 hours | significance was only observed at the 2 hours time point; also recorded: no significant variation was observed over time except for the 2 hours time point | no significant difference | only observed after AEBSF treatment | No obvious cell toxicity was observed | HNRNPH1 and HNRH3 were decreased and that PDIA3 (Grp58), HSP7C, GRP75 and HSP71 were increased
